What all share (format): cell-based, human
Series [1] has as its system hCASMCs. As to the kind of experiment: Mineralization assay (Alizarin Red staining, calcium deposition). The conditions noted are these: hCASMCs in osteogenic medium with siRNA, Day 21. The procedure: (§1) FIGS. 22A-22C depict the effects of the SORT1, AASS, CROT, IL1R1, ITGBL1, METTL7A and NNMT silencing on calcium deposition and TNAP activity in hCASMCs. HCASMCs were treated with siRNAs in NM. After 3 days, the medium was changed to OM with the siRNA. On Day 21, cells were fixed in 4% formalin for 10 min and washed twice with PBS for Alizarin Red staining. The cells were stained with 2% Alizarin Red solution for 20 min at RT and rinsed twice with water (FIG. 22A). Then, the Alizarin Red was extracted by 10 mM cetylpyridinium chloride and the extracts were measured on the absorbance (540 nm) (FIG. 22B). On Day 14, TNAP activity was determined using Alkaline Phosphatase Activity Colorimetric Assay Kit (FIG. 22C).
FIGS. 23A-23C depict teffects of the CROT silencing on calcium deposition and TNAP activity in hCASMCs. HCASMCs were treated with siRNAs in NM. […] Then, the Alizarin Red was extracted by 10 mM cetylpyridinium chloride and the extracts were measured on the absorbance (540 nm) (FIG. 23B). On Day 14, TNAP activity was determined using Alkaline Phosphatase Activity Colorimetric Assay Kit (FIG. 23C). **: P<0.01, ***: P <0.001 (vs. OM-siControl, Student's t-test, N=3-4). […]
Mineralization assay and activity of tissue non-specific alkaline phosphatase. Mineralized matrix formation was assessed by Alizarin Red staining. […] Aliquots were taken and measured with a spectrophotometer at 540 nm.

The next series concerns TNAP activity in hCASMCs. As to the kind of experiment: Tissue non-specific alkaline phosphatase (TNAP) activity in cell cultures. The conditions noted are these: hCASMCs in osteogenic medium with siRNA; Day 14. The protocol:
as §1
FIGS. 23A-23C depict teffects of the CROT silencing on calcium deposition and TNAP activity in hCASMCs. HCASMCs were treated with siRNAs in NM. After 3 days, the medium was changed to OM with the siRNA. […] Then, the Alizarin Red was extracted by 10 mM cetylpyridinium chloride and the extracts were measured on the absorbance (540 nm) (FIG. 23B). On Day 14, TNAP activity was determined using Alkaline Phosphatase Activity Colorimetric Assay Kit (FIG. 23C). **: P<0.01, ***: P <0.001 (vs. OM-siControl, Student's t-test, N=3-4). […]
Tissue non-specific alkaline phosphatase (TNAP) activity was measured in cell cultures using the Alkaline Phosphatase Activity Colorimetric Assay Kit (BioVision). […]

In series [2] the test system is hCASMCs. Nature of the series: Gene expression assay (TaqMan real-time PCR) in hCASMCs. The protocol:
FIG. 32 depicts graphs of the effects of PPAR agonists on gene expressions in hCASMCs. HCASMCs were maintained under the same condition with FIG. 23A-23C. Next day after cell seeding, medium was changed to 1% FCS DMEM. After 24 hours, hCASMCs were stimulated by 100 nM K-877 (K877), 100 nM GW-501516 (GW) and 100 nM rosiglitazone (Rosi). After 18 hours, the mRNA samples were isolated by TRIzol Reagent.
FIGS. 33A-33D depict the effects of CROT silencing on CDNK1A (FIG. 33A), DUSP1 (FIG. 33B), HMOX1 (FIG. 33C) and SAT1 (FIG. 33D) gene expression in hCASMCs. HCASMCs were maintained under the same condition with FIGS. 23A-23C. The mRNA samples from hCASMCs were isolated using TRIzol Reagent on Day 7. *: P<0.05, **: P<0.01 (vs. NM-siCont or OM-siCont, Student's t-test, N=3).
HCASMCs were maintained under the same condition with FIGS. 23A-23C. BMP7 was not detected. The mRNA samples from hCASMCs were isolated using TRIzol Reagent on Day 7. *: P<0.05 (vs. OM-siCont, Student's t-test, N=3).
FIG. 35 depicts the effects of PPAR agonists GW-501516 on SLC20A1 gene expression in hCASMCs. HCASMCs were maintained under the same condition with FIGS. 23A-23C. HCASMCs were stimulated by 100 nM GW-501516 (GW). After 18 hours, the mRNA samples were isolated by TRIzol Reagent. **: P<0.01, (vs. Control, Student's t-test, N=3).
RNA preparation and real-time PCR. Total RNA from the cell culture was isolated using TRIZol (Life Technologies). Reverse transcription was performed using the QuantiTect Reverse Transcription Kit (Qiagen). The mRNA expression was determined by TaqMan-based real-time PCR reactions (Life Technologies). The following TaqMan probes were used: 4326315E (human β-actin), (human SLC20A1), (human BMP2), (human BMP4), (human BMP7). The expression levels were normalized to β-actin. Results were calculated using the […] method, and presented as fold increase relative to control.
(In general: Real-time PCR tracks product formation cycle by cycle.)

“Also recorded” adds a separate entry of the source.

With “siCROT: siRNA silencing CROT; patent names inhibitory nucleic acid CACUUCAGCUGGCCUAUUA (SEQ ID NO: 1) as CROT inhibitor (listed as RNA, chemistry not given here)”, the Ca deposition entry in the series with hCASMCs [1] was “decreased”. For the same molecule, in the series with TNAP activity in hCASMCs, the TNAP activity entry is recorded as “decreased”. For the same molecule, in the series on hCASMCs [2] (CROT siRNA, Day 7), the HMOX1 expression result is listed as “induced”.
Turning to `Cc1cc(SCc2sc(-c3ccc(C(F)(F)F)cc3)nc2C)ccc1OCC(=O)O` [PPARδ agonist, GW-501516], the SLC20A1 gene expression result with hCASMCs [2] (PPARδ agonist, after 24 h) is listed as “suppressed; also recorded: reduced”. Also, in the series with hCASMCs [2] (response to PPARδ agonist), the CDKN1A gene expression result is listed as “affected”, the DUSP1 gene expression entry was “affected”, the HMOX1 gene expression entry is “affected” and the SAT1 gene expression result is “affected”.

Source of the values: patent US20200149049A1, “METHODS AND COMPOSITIONS RELATING TO ANTI-CALCIFICATION” (THE BRIGHAM AND WOMEN'S HOSPITAL, INC., priority 2017, published 2020).
